Assays:
[1] = Half-life of compound in acetate buffer (pH 4.5); assay type: ADME
[2] = Half-life of compound in the presence of lysosomal enzymes in the acetate buffer; assay type: ADME

SMILES | half-life [1] | half-life [2]
CC1(C)S[C@@H]2[C@H](NC(=O)COc3ccccc3)C(=O)N2[C@H]1C(=O)N[C@@H](Cc1ccc(O)cc1)C(=O)O | 7 h | 7 h
CC(=O)OCC1=C(C(=O)NC(CC(C)C)C(=O)O)N2C(=O)[C@@H](NC(=O)Cc3cccs3)[C@H]2SC1 (stereo partly drawn) | 41 h | 0.8 h
CC(=O)OCC1=C(C(=O)O)N2C(=O)[C@@H](NC(=O)Cc3cccs3)[C@H]2SC1 [CEPHALOTHIN] | 29 h | 1.1 h
CC1(C)S[C@@H]2[C@H](NC(=O)COc3ccccc3)C(=O)N2[C@H]1C(=O)O [PENICILLIN V] | 17 h | 14 h
